Results: patent US5863918A, “Naphthalene derivatives” (Fujisawa Pharmaceutical Co., Ltd., priority 1994, dated 1999)
Counter-ions that a name gives are not always drawn. Values belong to the compound of their own block, whether it stands above or below them.

Assays:
[1] = test system: human IP receptor; assay: Receptor binding assay ([^3 H]-iloprost binding to human IP receptor expressed in COS7); settings: test compound 1×10^-6 M; 10 nM [^3 H]-iloprost; 60 minutes, 30° C.
Procedure: cDNA of human IP receptor was cloned and expressed in COS7 using pCDM8 vector in a similar manner to that described in the literatures [J. Biol. Chem., Vol. 269, No. 16, pp.12173-12178 (1994): Circulation, Vol. 90, No. 4, pp1643-1647 (1994) FEBS Letters 344 (1994) 74-78].
After transfection, cells which expressed human IP receptor were collected with ce l scraper at 4° C. and stored in -80° C.
The composition of assay buffer was as follows: 20 mM MES (pH 6.0), 10 mM MgCl2, 1 mM EDTA, and 0.1 mM PMSF. Frozen cells were thawed and aliquots (4.5×10^5 cells) were incubated for 60 minutes under shaking at 30° C. in plastic tubes in 100 μl of assay buffer with 10 nM of [^3 H]-iloprost in the presence or absence of the test compound (1×10^-6 M).
To determine the non-specific binding, iloprost at 10 μM was added. Each assay was preformed in duplicate. Reaction mixture was filtered through a Whatman GF/C glass filter to stop the reaction. After washing the filter with ice-cold assay buffer, the radioactivity of the filter was countered. Non-specific binding was subtracted from total binding to yield specific binding. The effect of the test compound was expressed as % inhibition of specific [^3 H]-iloprost binding.

[2] = test system: mean arterial blood pressure in conscious rats; assay: Effect on mean arterial blood pressure in conscious rats; type: in vivo, rat (male Sprague-Dawley); settings: 10 mg/kg; intravenous (femoral vein)
Procedure: Male Sprague-Dawley rats, aged 8-9 weeks, were anesthetized with ether. A polyethylene cannula filled with heparin solution was inserted into the femoral artery of the rats to measure mean blood pressure. Mean blood pressure was measured with a pressure transducer and recorded on a polygraph. The test compound dissolved in ethanol, polyethylene glycol and distilled water (1:1:1) was administered through a polyethylene cannula inserted into the femoral vein in a volume of 1 ml/kg. Intravenous hypotensive effect of the test compound was expressed as the maximal decrease (R max). Briefly, R max was expressed as maximal % change compared to mean blood pressure prior to the administration of the test compound.

[3] = test system: human platelet aggregation induced by ADP; assay: Inhibition of human platelet aggregation induced by ADP; type: cell-based; settings: ADP 2.5 μM, platelet rich plasma, mean ± S.E.
Procedure: Human blood was obtained from healthy volunteers and mixed with 1/10 volume of 3.8% sodium citrate, pH 7.4. The citrate blood was centrifuged at 150×g for 10 minutes and the platelet rich plasma (PRP) was removed. The remaining blood was centrifuged for a further 10 minutes at 1500×g to prepare the platelet poor plasma (PPP), which was used as a reference for platelet aggregation. Aggregation studies were carried out using HEMATRACER 801 (NBS, Japan), a 8 channel aggregometer. 25 μl of sample solution and 225 μl of PRP were mixed and stirred at 1000 rpm for 2 minutes at 37° C. Aggregation was induced by ADP solution at the final concentration of 2.5 μM.

- Inhibition (%) of specific [^3 H]-iloprost binding [1]: 96.5%
Compound: O=C(O)COc1cccc2c1CC[C@](O)(COC(=O)N(c1ccccc1)c1ccccc1)C2 [Sodium salt of (2R)-[5-(carboxymethoxy)-2-hydroxy-1,2,3,4-tetrahydro-2-naphthyl]methyl N,N-diphenylcarbamate]

Compound: O=C(O)COc1cccc2c1CCC(O)(COC(=O)N(c1ccccc1)c1ccccc1)C2 (stereo not shown) [Test compound (1), Sodium salt of [5-(carboxymethoxy)-2-hydroxy-1,2,3,4-tetrahydro-2-naphthyl]methyl N,N-diphenylcarbamate]
- R max (%): maximal decrease (maximal % change compared to mean blood pressure prior to administration) [2]: 27.5%
- inhibition at 0.1 µM ([3]; 1.0 × 10^-7 M): 97 ± 1.2%

Compound: O=C(O)COc1cccc2c1CCC(Cn1nc(C(c3ccccc3)c3ccccc3)ccc1=O)C2 (stereo not shown) [Test compound (2), 2-[(1,2,3,4-Tetrahydro-5-carboxymethoxy-2-naphthyl)methyl]-6-diphenylmethyl-3(2H)-pyridazinone]
- inhibition at 1 µM ([3]; 1.0 × 10^-6 M): 100 ± 0.4%
